Here are results for 30 molecules from ChEMBL document CHEMBL5352388 (Eur J Med Chem, 2022).

In the test the target is Lysine-specific histone demethylase 1A (Homo sapiens, UniProt O60341).
Description: Inhibition of recombinant human LSD1 using fluorometric substrate by HRP based fluorimeter microplate reader assay
By IC50 is commonly meant the concentration that inhibits the measured activity by half. For the molecule `N#Cc1ccc(-c2cc3c(C(=O)N4CCC(N)CC4)c[nH]c3cc2-c2ccc(C(F)(F)F)cc2)cc1`, inhibition was half-maximal at 897 nM (IC50).

`Cc1ccc(-c2cc3[nH]cc(C(=O)N4CCC(N)CC4)c3cc2-c2ccc(C#N)cc2C)cc1` gave an IC50 of 600 nM. `Cc1ccc(-c2cc3[nH]cc(C(=O)N4CCC(N)CC4)c3cc2-c2ccc(S(N)(=O)=O)cc2)cc1`: the IC50 was determined as 23000 nM. The value for `Cc1ccc(-c2cc3[nH]cc(C(=O)NC4CCNC4)c3cc2-c2ccc(C#N)cc2)cc1` (stereo not given) was 369 nM; that for `Cc1ccc(CS(=O)(=O)n2cc(C(=O)N3CCC(N)CC3)c3cc(-c4ccc(C#N)cc4)c(-c4ccc(C)cc4)cc32)cc1` was 1740 nM. Molecule `Cc1ccc(-c2cc3c(cc2-c2ccc(C#N)cc2)c(C(=O)N2CCC(N)CC2)cn3Cc2cccc(Br)c2)cc1` came in with an IC50 of 554 nM. The value for `Cc1ccc(-c2cc3c(cc2-c2ccc(C#N)cc2)c(C(=O)N2CCC(N)CC2)cn3Cc2ccc(Cl)cc2)cc1` was 691 nM; that for `Cc1ccc(-c2cc3c(cc2-c2ccc(C#N)cc2)c(C(=O)N2CCC(N)CC2)cn3Cc2ccc(Br)cc2)cc1` was 1000 nM; that for `COc1ccc(-c2cc3[nH]cc(C(=O)N4CCC(N)CC4)c3cc2-c2ccc(C#N)cc2)c(F)c1` was 208 nM. For `N#Cc1ccc(-c2cc3c(C(=O)N4CCC(N)CC4)c[nH]c3cc2-c2ccoc2)cc1` the value was 969 nM. The value for `Cc1ccc(-c2cc3c(cc2-c2ccc(C#N)cc2)c(C(=O)N2CCC(N)CC2)cn3C(C)C)cc1` was 15 nM; that for `Cc1ccc(-c2cc3[nH]cc(C(=O)NCC4CCNC4)c3cc2-c2ccc(C#N)cc2)cc1` (stereo not given) was 208 nM; that for `Cc1ccc(-c2cc3[nH]cc(C(=O)N4CCC(N)CC4)c3cc2-c2ccc([N+](=O)[O-])cc2)cc1` was 20000 nM.

`N#Cc1ccc(-c2cc3c(C(=O)N4CCC(N)CC4)c[nH]c3cc2-c2cncnc2)cc1` returned an IC50 of 954 nM. The value for `Cc1ccc(-c2cc3[nH]cc(C(=O)N4CCC(N)CC4)c3cc2-c2ccc(O)cc2)cc1` was 5000 nM; that for `Cc1ccc(-c2cc3[nH]cc(C(=O)NC4CCCNC4)c3cc2-c2ccc(C#N)cc2)cc1` (stereo not given) was 400 nM. The value for `Cc1ccc(-c2cc3c(cc2-c2ccc(C#N)cc2)c(C(=O)N2CCC(N)CC2)cn3S(=O)(=O)c2ccc(C#N)cc2)cc1` was 110 nM; that for `Cc1ccc(-c2cc3[nH]cc(C(=O)N4CCC(N)CC4)c3cc2-c2ccc(C#N)nc2)cc1` was 114 nM; that for `Cc1ccc(-c2cc3[nH]cc(C(=O)NCCN)c3cc2-c2ccc(C#N)cc2)cc1` was 180 nM. For `Cc1ccc(-c2cc3[nH]cc(C(=O)N4CCC[C@@H](N)C4)c3cc2-c2ccc(C#N)cc2)cc1` the value was 339 nM.

With `Cc1ccc(-c2cc3[nH]cc(C(=O)N4CCC(CN)CC4)c3cc2-c2ccc(C#N)cc2)cc1`, the IC50 was found to be 135 nM. For `Cc1ccc(-c2cc3[nH]cc(C(=O)N[C@H]4CC[C@H](N)CC4)c3cc2-c2ccc(C#N)cc2)cc1` the value was 650 nM; for `Cc1ccc(-c2cc3[nH]cc(C(=O)N4CCC(N)CC4)c3cc2-c2ccc(C(N)=O)cc2)cc1`, 22000 nM.

For `CCn1cc(C(=O)N2CCC(N)CC2)c2cc(-c3ccc(C#N)cc3)c(-c3ccc(C)cc3)cc21`, the IC50 was 28 nM. Against the preceding molecule, the IC50 is about 790-fold lower.

Take `Cc1ccc(Cn2cc(C(=O)N3CCC(N)CC3)c3cc(-c4ccc(C#N)cc4)c(-c4ccc(C)cc4)cc32)cc1`: half-maximal inhibition (IC50) was put at 858 nM. With `Cc1ccc(-c2cc3c(cc2-c2ccc(C(N)=O)cc2)c(C(=O)NC2CCNCC2)cn3C)cc1`, the IC50 is 20000 nM. For `CC(=O)Nc1ccc(S(=O)(=O)n2cc(C(=O)N3CCC(N)CC3)c3cc(-c4ccc(C#N)cc4)c(-c4ccc(C)cc4)cc32)cc1`, half-maximal inhibition (IC50) was put at 165 nM. This IC50 is about 120-fold lower than that of the molecule before. The value for `Cc1ccc(-c2cc3c(cc2-c2ccc(C#N)cc2)c(C(=O)N2CCC(N)CC2)cn3C2CC2)cc1` was 18 nM; that for `Cc1ccc(-c2cc3[nH]cc(C(=O)N4CCC(N)CC4)c3cc2-c2ccc(C#N)cc2)c(C)c1` was 118 nM.

Take `Cc1ccc(-c2cc3[nH]cc(C(=O)NC4CCNC4)c3cc2-c2ccc(C(N)=O)cc2)cc1` (stereo not given): the IC50 was found to be 24000 nM.
